Target: T1, PPARγ (Homo sapiens, UniProt P37231)
T1 construct: GAL4 (yeast transcription factor, amino acids 1-147); expressed in transfected cells; host or cells: CV-1 cells (African green monkey kidney)
T1 sequence (P37231 204-505): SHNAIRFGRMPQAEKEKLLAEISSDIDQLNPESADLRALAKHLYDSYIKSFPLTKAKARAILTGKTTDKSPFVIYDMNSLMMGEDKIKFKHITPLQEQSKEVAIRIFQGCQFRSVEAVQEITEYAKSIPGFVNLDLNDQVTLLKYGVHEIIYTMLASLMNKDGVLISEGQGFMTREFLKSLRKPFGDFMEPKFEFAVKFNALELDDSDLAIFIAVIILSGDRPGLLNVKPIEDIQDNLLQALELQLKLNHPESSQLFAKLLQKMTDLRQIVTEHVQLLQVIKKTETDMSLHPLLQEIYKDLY
Assay: PPARγ ligand activity, GAL4-PPARγ ligand binding site luciferase reporter in CV-1 cells
Assay type: cell-based
Conditions: for PPARγ ligand activity: ratio to no treatment control (1.00), mean ± standard error, n = 3
Description: CV-1 cells (male African green monkey kidney-derived cultured cells) were seeded onto a 96-well culture plate (6×10^3 cells/well) and cultured under conditions of 37° C. and 5% CO2 for 24 hours. The medium used was DMEM (Dulbecco's modified Eagle medium; GIBCO) supplemented with 10% FBS (fetal bovine serum), 10 ml/L of a solution of penicillin and streptomycin (5,000 IU/ml and 5,000 μg/ml, respectively; GIBCO) and 37 mg/L of ascorbic acid (Wako Pure Chemical Industries, Ltd.). […] Each sample was dissolved in dimethyl sulfoxide (DMSO) and the solution, or DMSO used in a no treatment control group, was added to the medium to each concentration given in Table 4. Cells were washed with phosphate-buffered saline (PBS+) containing Ca and Mg, then luclite (PerkinElmer), a luciferase chemiluminescence reagent, was added, and the luciferase-due chemiluminescence intensity was measured using a TopCount microplate scintillation/luminescence counter (PerkinElmer).

## CC(C)=CC(=O)C[C@H](C)c1ccc(C)cc1 [ar-turmerone]
Addition level 2 μg/ml
  PPARγ ligand activity: 1.51 ± 0.14
Addition level 5 μg/ml
  PPARγ ligand activity: 2.33 ± 0.59
Summary of Table 4
  PPARγ ligand activity (in words): found to have PPARγ ligand activity
